US11090326B2, “Fixed-dose pharmaceutical composition comprising rifabutin, clarithromycin, and clofazimine” (RedHill Biopharma Ltd., priority 2008, dated 2021)
Read-outs that look alike come from different tables or passages of the source.

Key:
[1] = Bioavailability study: single-dose plasma pharmacokinetics of 2 test formulations of triple combination capsules
From the text: The objectives of this study were to 1) determine and compare the rate and extent of absorption and 2) to assess the safety and tolerability of 2 test formulations of a combination product of clarithromycin, rifabutin and clofazimine (herein after “triple combination”).
This study followed a randomized, open-label, single-dose, 1-way 2-arm parallel design in 24 normal, healthy, non-smoking male and female subjects.
Subjects were admitted to the clinic the day before dosing, and remained until the 24.00 hour post-dose blood draw, at which time they were allowed to leave the clinic and after which they were required to return for subsequent blood draws.
Following an overnight fast of at least 10 hours, subjects began a high fat content meal 30 minutes prior to drug administration. Subjects consumed this meal in 30 minutes or less; however, the study drug was administered 30 minutes after the start of the meal. The FDA standard high-fat content breakfast consisted of the following: 2 eggs fried in butter, 2 strips of bacon, 2 slices of toast with butter, 4 ounces of hash brown potatoes and 8 fluid ounces (about.240 mL) of whole milk.
Following an overnight fast of at least 10 hours, and 30 minutes after the start of a high fat content meal, subjects received one of the following treatments at 0.00 hour on Day 1 of the study period according to a randomization scheme:
The medications were administered orally. The drugs were given 1 or more capsules at a time. All capsules were ingested within 1 minute.
During the study period, 19 blood samples (1×4 mL and 1×6 mL tube for each sampling time point) were collected from each subject by direct venipuncture or by Vasofix® intravenous catheter using pre-cooled, labelled blood collection tubes containing potassium ethylenediaminetetraacetic acid (EDTA) as the anticoagulant. Blood samples were collected at 0.00 (pre-dose), 0.25, 0.50, 0.75, 1.00, 1.50, 2.00, 2.50, 3.00, 4.00, 6.00, 8.00, 10.00, 12.00, 16.00, 24.00, 48.00, 60.00, and 96.00 hours post-dose. The clock times of all blood draws for plasma concentration analyses were recorded.
The 6 mL tubes were used to measure clarithromycin and 14-hydroxyclarithromycin. The 4 mL tubes were used to measure rifabutin, 25-O-desacetylrifabutin and clofazimine.
(§1) The blood samples were stored in an ice bath before centrifugation and were centrifuged as soon as possible under refrigerated conditions (at 4° C.) at 3500 rpm for 7 minutes. The collected plasma from each blood collection tube was aliquotted into pre-cooled labelled polypropylene tubes. A minimum of 1.5 mL of plasma was transferred from the 6 mL tubes into the first polypropylene tube, and all remaining plasma, if any, was transferred into a second polypropylene tube. The samples were kept in an ice bath, and flash frozen in an upright position, then stored at −70±10° C. until assayed.
as §1, with “In another procedure, the blood” for “The blood”, “of 0.8” for “of 1.5”, “the 4 mL,” for “the 6 mL”
Upon completion of the clinical portion of the study, all samples were analysed for clarithromycin and 14-hydroxyclarithromycin in the plasma samples or for rifabutin, 25-O-desacetylrifabutin and clofazimine in the plasma samples.
Clarithromycin and 14-hydroxyclarithromycin—Information about these analytes was obtained using routine methods known in the art.

[2] = clinical; settings: human, in vivo, 90 mg
From the text: Gatti et al. (1998) conducted a comparative study of rifabutin absorption and disposition in HIV-infected patients with or without wasting syndrome.

[3] = single 300 mg dose of rifabutin, fasting; 10 HIV patients without wasting syndrome (Gatti et al., 1998); cited from earlier work
[4] = single dose of 250 mg of clarithromycin; cited from earlier work
[5] = Literature Cmax of clarithromycin (Chu et al., 1993); settings: in vivo; clarithromycin 190 mg dose; read-out: Cmax, literature value scaled to dose of the study
Description: The results obtained from dry and PEG formulations of triple combination capsules were approximately proportional to literature findings. Chu et al. (1993) reported that the rise of clarithromycin peak concentrations occur non-linearly to dose which might explain any slight disproportionality between the literature values and those obtained from triple combination capsules dry and PEG formulations.
Clarithromycin—500 mg (four 125-mg capsules, Abbott Laboratories) every 12 hours for 5 doses.

[6] = Literature Cmax of clofazimine (Nix et al., 2004); settings: in vivo; clofazimine 20 mg dose; read-out: Cmax, literature value scaled to dose of the study
[7] = clofazimine 200 mg dose, fed (Nix et al., 2004); cited from earlier work
[8] = rifabutin, geometric mean ratio dry/PEG formulation of triple combination capsules
[9] = 25-O-desacetylrifabutin, geometric mean ratio dry/PEG formulation of triple combination capsules
[10] = clarithromycin, geometric mean ratio dry/PEG formulation of triple combination capsules
[11] = clofazimine, geometric mean ratio dry/PEG formulation of triple combination capsules

CO[C@H]1/C=C/O[C@@]2(C)Oc3c(C)c(O)c4c(c3C2=O)C2=NC3(CCN(CC(C)C)CC3)NC2=C(NC(=O)/C(C)=C\C=C\[C@H](C)[C@H](O)[C@@H](C)[C@@H](O)[C@@H](C)[C@H](OC(C)=O)[C@@H]1C)C4=O [RIFABUTIN, rifabutin]
Relative bioavailability, Ratio of Means, AUC0-inf [1, 8]: 73.23% | Relative bioavailability, Ratio of Means, AUC0-t [1, 8]: 77.00% | Relative bioavailability, Ratio of Means, Cmax [1, 8]: 88.74% | Cmax [2]: 102 ng/mL | Cmax (peak concentration) [3]: 340 ± 140 ng/mL

25-O-desacetylrifabutin [25-0-DESACETYLRIFABUTIN]
Relative bioavailability, Ratio of Means, AUC0-t [1, 9]: 73.95% | Relative bioavailability, Ratio of Means, Cmax [1, 9]: 73.43% | Relative bioavailability, Ratio of Means, AUC0-inf ([1]; 25-O-desacetylrifabutin, geometric mean ratio dry/PEG formulation, approximately 65% of subjects excluded): 86.06%

CC[C@H]1OC(=O)[C@H](C)[C@@H](O[C@H]2C[C@@](C)(OC)[C@@H](O)[C@H](C)O2)[C@H](C)[C@@H](O[C@@H]2O[C@H](C)C[C@H](N(C)C)[C@H]2O)[C@](C)(OC)C[C@@H](C)C(=O)[C@H](C)[C@@H](O)[C@]1(C)O [CLARITHROMYCIN, clarithromycin]
Cmax [4]: 780 ± 250 ng/mL | Relative bioavailability, Ratio of Means, AUC0-inf [1, 10]: 80.78% | Relative bioavailability, Ratio of Means, AUC0-t [1, 10]: 80.34% | Relative bioavailability, Ratio of Means, Cmax [1, 10]: 75.03% | Cmax [5]: 593 ng/mL

CC(C)/N=c1\cc2n(-c3ccc(Cl)cc3)c3ccccc3nc-2cc1Nc1ccc(Cl)cc1 [CLOFAZIMINE, clofazimine]
Cmax [6]: 23 ng/mL | Relative bioavailability, Ratio of Means, AUC0-t [1, 11]: 102.38% | Relative bioavailability, Ratio of Means, Cmax [1, 11]: 118.63% | Relative bioavailability, Ratio of Means, AUC0-t ([1]; clofazimine, geometric mean ratio dry/PEG formulation of triple combination capsules, listed as clofazimine): 102% | Relative bioavailability, Ratio of Means, AUC0-inf ([1]; clofazimine, geometric mean ratio dry/PEG formulation, approximately 50% (A) and 75% (B) of subjects excluded): 120.52% | Cmax [7]: 227 ng/mL
